Assay results from PubChem BioAssay (NCI).
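GI50: concentration for 50% inhibition of growth. TGI denotes the concentration required for complete inhibition of growth.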

Key:
Experiment in all cases: DTP human tumour cell line panel, 384-well format
[1] = system: MDA-MB-468 breast
[2] = system: M14 melanoma
[3] = system: SW-620 colon
[4] = system: K-562 leukemia
[5] = system: SF-268 CNS
[6] = system: UACC-257 melanoma
[7] = system: SF-539 CNS
[8] = system: SN12C renal
[9] = system: SF-295 CNS
[10] = system: KM12 colon
[11] = system: CAKI-1 renal
[12] = system: SNB-75 CNS
[13] = system: PC-3 prostate

## Nc1nc(OCc2cc(Br)cs2)c2[nH]cnc2n1
[1]
  GI50: 16.9 µM
  TGI: 47.5 µM
[2]
  GI50: 47.9 µM
  TGI: > 100 µM
[3]
  GI50: 67.4 µM
  TGI: > 100 µM
[4]
  GI50: 27.8 µM
  TGI: > 100 µM
[5]
  GI50: 32.1 µM
  TGI: > 84.9 µM
[6]
  GI50: 51.7 µM
  TGI: > 100 µM
[7]
  GI50: 44.2 µM
  TGI: > 100 µM
[8]
  GI50: 29 µM
  TGI: > 100 µM
[9]
  GI50: 48.7 µM
  TGI: > 100 µM
[10]
  GI50: 87.2 µM
  TGI: > 100 µM
[11]
  GI50: 25.1 µM
  TGI: 86.6 µM
[12]
  GI50: 29.7 µM
  TGI: 85.4 µM
[13]
  GI50: 74 µM
  TGI: > 100 µM
